Source: patent publication EP4745137A1 (Gluetacs Therapeutics (Shanghai) Co., Ltd., priority 2023, dated 2025)

Legend:
SW620 = test: Tumor cell proliferation inhibition (CellTiter-Meiluncell Luminescent Cell Viability Assay), SW620; settings: Homo sapiens, SW-620, 96 h, read-out: inhibitory activity (IC50, nM) against tumor cells proliferation, SW620
IKZF1 = target: T1, IKZF1 (Homo sapiens, UniProt Q13422+Q96SW2); test: Western-blot assay of substrate protein degradation in hPBMCs, IKZF1; format: cell-based; settings: 24 hours of compound treatment, compounds tested at 50 nM and 500 nM (concentration of the table not stated)
T1 construct: endogenous in cells; host or cells: hPBMCs (Milecell Biotechnologies)
T1 sequence (Q13422 whole entry): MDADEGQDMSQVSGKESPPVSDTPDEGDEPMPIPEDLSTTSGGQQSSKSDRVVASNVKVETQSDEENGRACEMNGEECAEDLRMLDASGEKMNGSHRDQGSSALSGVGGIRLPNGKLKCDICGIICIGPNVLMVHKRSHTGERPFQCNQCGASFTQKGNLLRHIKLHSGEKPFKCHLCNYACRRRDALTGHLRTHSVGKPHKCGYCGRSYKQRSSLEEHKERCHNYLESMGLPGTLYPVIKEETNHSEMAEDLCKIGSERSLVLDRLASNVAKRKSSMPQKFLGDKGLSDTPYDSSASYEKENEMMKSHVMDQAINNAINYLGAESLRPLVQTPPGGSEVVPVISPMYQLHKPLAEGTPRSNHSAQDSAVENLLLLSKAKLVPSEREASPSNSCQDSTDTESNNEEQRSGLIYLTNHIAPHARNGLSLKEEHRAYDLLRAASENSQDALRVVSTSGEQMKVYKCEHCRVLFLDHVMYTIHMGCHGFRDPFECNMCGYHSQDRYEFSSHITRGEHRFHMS
T1 sequence (Q96SW2 whole entry): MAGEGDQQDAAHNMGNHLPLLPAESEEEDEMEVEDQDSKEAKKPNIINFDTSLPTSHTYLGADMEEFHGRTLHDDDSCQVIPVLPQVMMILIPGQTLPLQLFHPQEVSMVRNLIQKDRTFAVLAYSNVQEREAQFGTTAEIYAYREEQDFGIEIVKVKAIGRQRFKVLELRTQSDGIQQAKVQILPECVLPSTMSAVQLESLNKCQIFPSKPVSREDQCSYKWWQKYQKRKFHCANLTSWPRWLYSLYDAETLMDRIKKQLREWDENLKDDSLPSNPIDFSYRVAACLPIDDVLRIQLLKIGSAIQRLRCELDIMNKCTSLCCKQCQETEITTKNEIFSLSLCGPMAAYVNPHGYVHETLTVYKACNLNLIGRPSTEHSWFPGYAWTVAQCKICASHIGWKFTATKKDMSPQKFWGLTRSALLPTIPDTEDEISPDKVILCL
T1 sequence (Q16531 whole entry partner): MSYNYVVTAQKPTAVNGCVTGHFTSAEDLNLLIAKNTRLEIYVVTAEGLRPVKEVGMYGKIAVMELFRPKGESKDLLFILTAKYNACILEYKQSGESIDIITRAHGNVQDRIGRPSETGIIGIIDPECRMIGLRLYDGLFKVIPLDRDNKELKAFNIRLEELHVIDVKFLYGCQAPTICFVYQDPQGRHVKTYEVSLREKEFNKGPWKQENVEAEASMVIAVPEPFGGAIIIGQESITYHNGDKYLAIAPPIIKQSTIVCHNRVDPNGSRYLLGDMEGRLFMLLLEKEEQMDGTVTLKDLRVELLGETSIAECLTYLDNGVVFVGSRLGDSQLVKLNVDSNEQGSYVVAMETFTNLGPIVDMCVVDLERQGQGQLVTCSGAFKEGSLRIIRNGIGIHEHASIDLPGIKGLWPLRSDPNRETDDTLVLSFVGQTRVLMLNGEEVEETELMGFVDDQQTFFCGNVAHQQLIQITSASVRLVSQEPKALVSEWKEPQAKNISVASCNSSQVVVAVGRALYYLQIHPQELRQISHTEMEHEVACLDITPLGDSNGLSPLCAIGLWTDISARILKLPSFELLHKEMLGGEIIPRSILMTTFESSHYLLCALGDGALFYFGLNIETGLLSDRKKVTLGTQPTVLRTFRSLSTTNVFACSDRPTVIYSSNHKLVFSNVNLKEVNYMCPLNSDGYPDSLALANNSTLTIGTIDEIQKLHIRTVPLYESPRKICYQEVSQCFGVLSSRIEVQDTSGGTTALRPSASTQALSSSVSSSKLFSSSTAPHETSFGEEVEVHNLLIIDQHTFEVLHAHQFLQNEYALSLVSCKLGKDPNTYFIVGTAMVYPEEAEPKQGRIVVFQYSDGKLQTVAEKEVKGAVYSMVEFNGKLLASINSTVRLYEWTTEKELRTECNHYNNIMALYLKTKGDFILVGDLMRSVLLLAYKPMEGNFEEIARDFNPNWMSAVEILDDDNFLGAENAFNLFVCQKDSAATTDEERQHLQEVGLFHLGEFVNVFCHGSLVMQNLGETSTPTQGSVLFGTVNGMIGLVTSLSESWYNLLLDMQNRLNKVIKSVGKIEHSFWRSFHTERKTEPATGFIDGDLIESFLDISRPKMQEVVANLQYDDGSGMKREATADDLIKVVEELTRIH

WEE1 = target: T2, WEE1 (Homo sapiens, UniProt P30291+Q96SW2); test: Western-blot assay of substrate protein degradation in hPBMCs, WEE1; format: cell-based; settings: 24 hours of compound treatment, compounds tested at 50 nM and 500 nM (concentration of the table not stated)
T2 construct: endogenous in cells; host or cells: hPBMCs (Milecell Biotechnologies)
T2 sequence (P30291 whole entry): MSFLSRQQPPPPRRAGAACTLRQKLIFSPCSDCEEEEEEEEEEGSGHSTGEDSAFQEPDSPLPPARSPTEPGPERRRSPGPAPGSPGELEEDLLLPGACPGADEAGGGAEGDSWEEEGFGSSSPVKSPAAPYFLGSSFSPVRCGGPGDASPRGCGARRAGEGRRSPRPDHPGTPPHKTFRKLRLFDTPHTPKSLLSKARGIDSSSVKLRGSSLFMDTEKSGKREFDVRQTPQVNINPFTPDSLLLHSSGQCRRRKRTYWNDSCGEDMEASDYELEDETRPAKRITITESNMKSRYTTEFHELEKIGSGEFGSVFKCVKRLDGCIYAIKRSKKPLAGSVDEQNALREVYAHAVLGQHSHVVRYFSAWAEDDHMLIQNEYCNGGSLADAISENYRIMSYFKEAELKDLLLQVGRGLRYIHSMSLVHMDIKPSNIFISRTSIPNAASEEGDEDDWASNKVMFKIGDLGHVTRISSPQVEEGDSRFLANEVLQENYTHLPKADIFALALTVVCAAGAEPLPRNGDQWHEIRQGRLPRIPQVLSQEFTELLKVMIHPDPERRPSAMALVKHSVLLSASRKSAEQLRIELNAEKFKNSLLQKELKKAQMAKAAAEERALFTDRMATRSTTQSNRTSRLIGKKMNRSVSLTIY
T2 sequence (Q96SW2 whole entry): as the sequence (Q96SW2 whole entry) above
T2 sequence (Q16531 whole entry partner): as the sequence (Q16531 whole entry partner) above

IKZF2 = target: T3, IKZF2 (Homo sapiens, UniProt Q96SW2+Q9UKS7); test: Western-blot assay of substrate protein degradation in hPBMCs, IKZF2; format: cell-based; settings: 24 hours of compound treatment, compounds tested at 50 nM and 500 nM (concentration of the table not stated)
T3 construct: endogenous in cells; host or cells: hPBMCs (Milecell Biotechnologies)
T3 sequence (Q9UKS7 whole entry): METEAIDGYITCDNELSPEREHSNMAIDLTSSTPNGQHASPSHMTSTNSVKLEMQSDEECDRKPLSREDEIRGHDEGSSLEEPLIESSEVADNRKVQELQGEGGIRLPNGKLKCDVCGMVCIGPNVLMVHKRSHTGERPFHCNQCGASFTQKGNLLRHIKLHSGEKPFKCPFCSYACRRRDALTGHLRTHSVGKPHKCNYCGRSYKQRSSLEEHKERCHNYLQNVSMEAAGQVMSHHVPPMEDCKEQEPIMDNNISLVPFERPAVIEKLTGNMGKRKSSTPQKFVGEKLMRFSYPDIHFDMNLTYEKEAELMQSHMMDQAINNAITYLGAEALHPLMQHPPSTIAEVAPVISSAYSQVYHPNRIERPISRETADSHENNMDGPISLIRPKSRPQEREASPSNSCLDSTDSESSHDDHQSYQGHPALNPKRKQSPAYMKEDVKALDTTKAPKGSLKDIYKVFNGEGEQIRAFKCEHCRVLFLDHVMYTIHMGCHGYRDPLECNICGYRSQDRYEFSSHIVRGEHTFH
T3 sequence (Q96SW2 whole entry): as the sequence (Q96SW2 whole entry) above
T3 sequence (Q16531 whole entry partner): as the sequence (Q16531 whole entry partner) above

Vcap = test: Tumor cell proliferation inhibition (CellTiter-Meiluncell Luminescent Cell Viability Assay), Vcap; settings: Homo sapiens, 96 h, read-out: inhibitory activity (IC50, nM) against tumor cells proliferation, Vcap
Procedure: (§1) The tumor cells used herein were cultured in a cell culture medium listed in table 2 at 37°C in an incubator with 5% CO2. Prior to experimentation, all cell lines used were correctly identified by STR profiling, and tested negative for mycoplasma contamination using a mycoplasma detection kit through routine screenings.
(§2) On the following day, the test compounds of the present disclosure were subjected to serial dilution. […] Subsequently, 0.5 µL of the test compound dilution was transferred into the 96-well plate containing the cells, with each well containing 100 µL of cell culture medium. […] Into the 96-well plate, the diluted test compounds and corresponding detection reagents were added, resulting in final test compound concentrations of 500 nM and 10 nM, respectively. The experimental procedure is described below using the diluted 2 µM test compound as an example.
(§3) After the cells were treated with the compounds of the present disclosure for a specified period (the treatment durations were shown in Table 3), the cell viability assay reagent was added to the culture medium according to the kit's instructions to determine cell viability. […] All controls were treated using the same procedure as the compounds of the present disclosure. The growth inhibition curves for the compounds of the present disclosure were plotted using Prism GraphPad software, and the IC50 values were calculated therefrom.

CK1α = target: T4, CK1α (Homo sapiens, UniProt P48729+Q96SW2); test: Western-blot assay of substrate protein degradation in hPBMCs, CK1α; format: cell-based; settings: 24 hours of compound treatment, compounds tested at 50 nM and 500 nM (concentration of the table not stated)
T4 construct: endogenous in cells; host or cells: hPBMCs (Milecell Biotechnologies)
T4 sequence (P48729 whole entry): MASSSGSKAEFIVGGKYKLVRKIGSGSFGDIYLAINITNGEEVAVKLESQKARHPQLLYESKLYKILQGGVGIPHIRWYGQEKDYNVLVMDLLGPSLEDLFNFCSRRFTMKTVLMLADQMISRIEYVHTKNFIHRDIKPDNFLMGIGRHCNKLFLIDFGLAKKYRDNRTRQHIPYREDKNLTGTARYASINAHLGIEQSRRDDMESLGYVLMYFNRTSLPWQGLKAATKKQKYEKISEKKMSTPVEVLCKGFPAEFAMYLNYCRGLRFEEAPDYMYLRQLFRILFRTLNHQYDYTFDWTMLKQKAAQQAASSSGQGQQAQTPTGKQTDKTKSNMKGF
T4 sequence (Q96SW2 whole entry): as the sequence (Q96SW2 whole entry) above
T4 sequence (Q16531 whole entry partner): as the sequence (Q16531 whole entry partner) above

MGC803 = test: Tumor cell proliferation inhibition (CellTiter-Meiluncell Luminescent Cell Viability Assay), MGC803; settings: Homo sapiens, MGC-803, 96 h, read-out: inhibitory activity (IC50, nM) against tumor cells proliferation, MGC803
Procedure: as §1
On the following day, the test compounds of the present disclosure were subjected to serial dilution. […] Subsequently, 0.5 µL of the test compound dilution was transferred into the 96-well plate containing the cells, with each well containing 100 µL of cell culture medium. […] Into the 96-well plate, the diluted test compounds and corresponding detection reagents were added, resulting in final test compound concentrations of 500 nM and 10 nM, respectively.
as §3

CCRF-CEM = test: Tumor cell proliferation inhibition (CellTiter-Meiluncell Luminescent Cell Viability Assay), CCRF-CEM; settings: Homo sapiens, 96 h, read-out: inhibitory activity (IC50, nM) against tumor cells proliferation, CCRF-CEM
GSPT1 = target: T5, GSPT1 (Homo sapiens, UniProt P15170+Q96SW2); test: Western-blot assay of substrate protein degradation in hPBMCs, GSPT1; format: cell-based; settings: 24 hours of compound treatment, compounds tested at 50 nM and 500 nM (concentration of the table not stated)
T5 construct: endogenous in cells; host or cells: hPBMCs (Milecell Biotechnologies)

CAL-62 = test: Tumor cell proliferation inhibition (CellTiter-Meiluncell Luminescent Cell Viability Assay), CAL-62; settings: Homo sapiens, CAL-62, 96 h, read-out: inhibitory activity (IC50, nM) against tumor cells proliferation, CAL-62
[1] = target: T6, human Cereblon WT GST-tagged protein (Homo sapiens, UniProt Q96SW2); test: CRBN-binding affinity by HTRF (CEREBLON BINDING kit); settings: HTRF inhibitory activity, CEREBLON BINDING kit; read-out: HTRF IC50
T6 construct: purchased CISBIO 64BDCRBNPEH
T6 sequence (Q96SW2 whole entry): as the sequence (Q96SW2 whole entry) above

Jurkat = test: Tumor cell proliferation inhibition (CellTiter-Meiluncell Luminescent Cell Viability Assay), Jurkat; settings: Homo sapiens, 96 h, read-out: inhibitory activity (IC50, nM) against tumor cells proliferation, Jurkat
Procedure: as §1, §2, §3

TMD8 = test: Tumor cell proliferation inhibition (CellTiter-Meiluncell Luminescent Cell Viability Assay), TMD8; settings: Homo sapiens, TMD8, 96 h, read-out: inhibitory activity (IC50, nM) against tumor cells proliferation, TMD8
IKZF3 = target: T7, IKZF3 (Homo sapiens, UniProt Q96SW2+Q9UKT9); test: Western-blot assay of substrate protein degradation in hPBMCs, IKZF3; format: cell-based; settings: 24 hours of compound treatment, compounds tested at 50 nM and 500 nM (concentration of the table not stated)
T7 construct: endogenous in cells; host or cells: hPBMCs (Milecell Biotechnologies)
T7 sequence (Q9UKT9 whole entry): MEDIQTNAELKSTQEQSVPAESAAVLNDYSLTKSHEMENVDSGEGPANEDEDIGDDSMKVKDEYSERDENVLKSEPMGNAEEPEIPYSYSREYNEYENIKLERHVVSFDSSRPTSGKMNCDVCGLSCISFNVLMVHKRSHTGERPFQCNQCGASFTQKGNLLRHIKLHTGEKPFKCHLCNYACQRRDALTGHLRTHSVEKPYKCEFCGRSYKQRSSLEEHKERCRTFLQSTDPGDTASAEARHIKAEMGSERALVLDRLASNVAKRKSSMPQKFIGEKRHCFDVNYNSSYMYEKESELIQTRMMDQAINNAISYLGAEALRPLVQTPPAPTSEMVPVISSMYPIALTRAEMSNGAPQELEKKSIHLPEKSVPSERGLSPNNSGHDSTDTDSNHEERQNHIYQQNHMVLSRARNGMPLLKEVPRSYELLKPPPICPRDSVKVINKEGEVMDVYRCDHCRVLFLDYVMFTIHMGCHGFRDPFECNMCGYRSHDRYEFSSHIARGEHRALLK
T7 sequence (Q96SW2 whole entry): as the sequence (Q96SW2 whole entry) above
T7 sequence (Q16531 whole entry partner): as the sequence (Q16531 whole entry partner) above

[2] = system: Human breast cancer cells (MDA-MB-231); test: Tumor cell proliferation inhibition (CellTiter-Meiluncell Luminescent Cell Viability Assay), MDA-MB-231; settings: MDA-MB-231, 96 h, read-out: inhibitory activity (IC50, nM) against tumor cells proliferation, MDA-MB-231
[3] = system: Human acute T lymphocytic leukemia cells (Molt-4); test: Tumor cell proliferation inhibition (CellTiter-Meiluncell Luminescent Cell Viability Assay), Molt-4; settings: MOLT-4, 96 h, read-out: inhibitory activity (IC50, nM) against tumor cells proliferation, Molt 4
NCI-H1975 = test: Tumor cell proliferation inhibition (CellTiter-Meiluncell Luminescent Cell Viability Assay), NCI-H1975; settings: Homo sapiens, NCI-H1975, 96 h, read-out: inhibitory activity (IC50, nM) against tumor cells proliferation, H1975
MM.1R = test: Tumor cell proliferation inhibition (CellTiter-Meiluncell Luminescent Cell Viability Assay), MM.1R; settings: Homo sapiens, 96 h, read-out: inhibitory activity (IC50, nM) against tumor cells proliferation, MM.1R

| Compound | IC50 (SW620) [nM] | IKZF 1 substrate protein remaining % (IKZF1) | Weel substrate protein remaining % (WEE1) | IKZF2 substrate protein remaining % (IKZF2) | IC50 (Vcap) [nM] | CK1a substrate protein remaining % (CK1α) | IC50 (MGC803) [nM] | IC50 (CCRF-CEM) [nM] | GSPT1 substrate protein remaining % (GSPT1) | IC50 (CAL-62) [nM] | IC50 [1] [µM] | IC50 (Jurkat) [nM] | IC50 (TMD8) [nM] | IKZF3 substrate protein remaining % (IKZF3) | IC50 [2] [nM] | IC50 [3] [nM] | IC50 (NCI-H1975) [nM] | IC50 (MM.1R) [nM] |
| --- | --- | --- | --- | --- | --- | --- | --- | --- | --- | --- | --- | --- | --- | --- | --- | --- | --- | --- |
| O=C1CCC(N2Cc3cc(CN4CCN(c5cccc(Cl)c5Cl)CC4)ccc3C2=O)C(=O)N1 (stereo not drawn) [GT-04201, 3-(5-((4-(2,3-dichlorophenyl)piperazin-1-yl)methyl)-1-oxoisoindolin-2-yl)piperidine-2,6-dione] | 50 to 100 | B (80%< substrate protein remaining %≤ 100%) | A (0% ≤ substrate protein remaining % ≤ 80%) | A (0% ≤ substrate protein remaining % ≤ 80%) | 5 to 10 | A (0% ≤ substrate protein remaining % ≤ 80%) | 10 to 50 | 1 to 5 | A (0% ≤ substrate protein remaining % ≤ 80%) | 1 to 5 | 1 to 1.5 | 1 to 5 | 10 to 50 | B (80%< substrate protein remaining %≤ 100%) | – | – | – | – |
| O=C1CCC(N2Cc3cc(CN4CCN(c5cccc6sccc56)CC4)ccc3C2=O)C(=O)N1 (stereo not drawn) [GT-04202, 3-(5-((4-(benzo[b]thiophen-4-yl)piperazin-1-yl)methyl)-1-oxoisoindolin-2-yl)piperidine-2,6-dione] | 1 to 5 | A (0% ≤ substrate protein remaining % ≤ 80%) | A (0% ≤ substrate protein remaining % ≤ 80%) | A (0% ≤ substrate protein remaining % ≤ 80%) | 1 to 5 | A (0% ≤ substrate protein remaining % ≤ 80%) | 10 to 50 | 1 to 5 | A (0% ≤ substrate protein remaining % ≤ 80%) | 1 to 5 | 0.5 to 1 | 1 to 5 | 10 to 50 | A (0% ≤ substrate protein remaining % ≤ 80%) | – | – | – | – |
| Cc1ccc(Sc2ccccc2N2CCN(Cc3ccc4c(c3)CN(C3CCC(=O)NC3=O)C4=O)CC2)c(C)c1 (stereo not drawn) [GT-04203, 3-(5-((4-(2-((2,4-dimethylphenyl)thio)phenyl)piperazin-1-yl)methyl)-1-oxoisoindolin-2-yl)piperidine-2,6-dione] | 10 to 50 | A (0% ≤ substrate protein remaining % ≤ 80%) | A (0% ≤ substrate protein remaining % ≤ 80%) | A (0% ≤ substrate protein remaining % ≤ 80%) | 5 to 10 | A (0% ≤ substrate protein remaining % ≤ 80%) | 100 to 500 | 5 to 10 | A (0% ≤ substrate protein remaining % ≤ 80%) | 5 to 10 | 0.5 to 1 | 5 to 10 | 10 to 50 | A (0% ≤ substrate protein remaining % ≤ 80%) | – | – | – | – |
| O=C1CCC(N2Cc3cc(CN4CCN(c5cccc(C(F)(F)F)n5)CC4)ccc3C2=O)C(=O)N1 (stereo not drawn) [GT-04432, 3-(1-oxo-5-((4-(6-(trifluoromethyl)pyridin-2-yl)piperazin-1-yl)methyl)isoindolin-2-yl)piperidine-2,6-dione] | 100 to 500 | A (0% ≤ substrate protein remaining % ≤ 80%) | A (0% ≤ substrate protein remaining % ≤ 80%) | A (0% ≤ substrate protein remaining % ≤ 80%) | 10 to 50 | B (80%< substrate protein remaining %≤ 100%) | 100 to 500 | 5 to 10 | A (0% ≤ substrate protein remaining % ≤ 80%) | 10 to 50 | 0.5 to 1 | 1 to 5 | – | A (0% ≤ substrate protein remaining % ≤ 80%) | 500 to 1000 | 5 to 10 | 100 to 500 | 5 to 10 |
| Cc1ccc(Cl)cc1N1CCN(Cc2ccc3c(c2)CN(C2CCC(=O)NC2=O)C3=O)CC1 (stereo not drawn) [GT-04440, 3-(5-((4-(5-chloro-2-methylphenyl)piperazin-1-yl)methyl)-1-oxoisoindolin-2-yl)piperidine-2,6-dione] | 500 to 1000 | A (0% ≤ substrate protein remaining % ≤ 80%) | A (0% ≤ substrate protein remaining % ≤ 80%) | A (0% ≤ substrate protein remaining % ≤ 80%) | 50 to 100 | A (0% ≤ substrate protein remaining % ≤ 80%) | 500 to 1000 | 10 to 50 | A (0% ≤ substrate protein remaining % ≤ 80%) | 10 to 50 | 0.5 to 1 | 10 to 50 | – | A (0% ≤ substrate protein remaining % ≤ 80%) | 500 to 1000 | 5 to 10 | 500 to 1000 | 10 to 50 |
| COc1cccc(N2CCN(Cc3ccc4c(c3)CN(C3CCC(=O)NC3=O)C4=O)CC2)c1 (stereo not drawn) [GT-04448, 3-(5-((4-(3-methoxyphenyl)piperazin-1-yl)methyl)-1-oxoisoindolin-2-yl)piperidine-2,6-dione] | 100 to 500 | A (0% ≤ substrate protein remaining % ≤ 80%) | A (0% ≤ substrate protein remaining % ≤ 80%) | A (0% ≤ substrate protein remaining % ≤ 80%) | 50 to 100 | A (0% ≤ substrate protein remaining % ≤ 80%) | 500 to 1000 | 10 to 50 | A (0% ≤ substrate protein remaining % ≤ 80%) | 10 to 50 | 1 to 1.5 | 10 to 50 | – | A (0% ≤ substrate protein remaining % ≤ 80%) | 500 to 1000 | 10 to 50 | 100 to 500 | 10 to 50 |
